From patent US9238656B2, “Imidazo[4,5-b]pyridine derivatives as ALK and JAK modulators for the treatment of proliferative disorders” (priority 2012, dated 2016)

How the values were obtained:
[1] = target: baculovirus-expressed JAK2 kinase (Homo sapiens, UniProt O60674); experiment: biochemical; settings: 0.2 μM ATP; read-out: JAK2 Potency
Procedure, shortened: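 IC50 derived by variable-slope sigmoidal fit of percent inhibition against log compound concentration. Baculovirus-expressed JAK2 (15 ng/mL) phosphorylated a plate-bound biotinylated 15-mer peptide for 20 min at room temperature; detection by time-resolved fluorescence.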

[2] = target: baculovirus-expressed ALK (Homo sapiens, UniProt Q9UM73); experiment: ALK kinase inhibition, TRF/ELISA; type: biochemical; settings: read-out: ALK Potency
Chain of baculovirus-expressed ALK (Q9UM73 19-1620): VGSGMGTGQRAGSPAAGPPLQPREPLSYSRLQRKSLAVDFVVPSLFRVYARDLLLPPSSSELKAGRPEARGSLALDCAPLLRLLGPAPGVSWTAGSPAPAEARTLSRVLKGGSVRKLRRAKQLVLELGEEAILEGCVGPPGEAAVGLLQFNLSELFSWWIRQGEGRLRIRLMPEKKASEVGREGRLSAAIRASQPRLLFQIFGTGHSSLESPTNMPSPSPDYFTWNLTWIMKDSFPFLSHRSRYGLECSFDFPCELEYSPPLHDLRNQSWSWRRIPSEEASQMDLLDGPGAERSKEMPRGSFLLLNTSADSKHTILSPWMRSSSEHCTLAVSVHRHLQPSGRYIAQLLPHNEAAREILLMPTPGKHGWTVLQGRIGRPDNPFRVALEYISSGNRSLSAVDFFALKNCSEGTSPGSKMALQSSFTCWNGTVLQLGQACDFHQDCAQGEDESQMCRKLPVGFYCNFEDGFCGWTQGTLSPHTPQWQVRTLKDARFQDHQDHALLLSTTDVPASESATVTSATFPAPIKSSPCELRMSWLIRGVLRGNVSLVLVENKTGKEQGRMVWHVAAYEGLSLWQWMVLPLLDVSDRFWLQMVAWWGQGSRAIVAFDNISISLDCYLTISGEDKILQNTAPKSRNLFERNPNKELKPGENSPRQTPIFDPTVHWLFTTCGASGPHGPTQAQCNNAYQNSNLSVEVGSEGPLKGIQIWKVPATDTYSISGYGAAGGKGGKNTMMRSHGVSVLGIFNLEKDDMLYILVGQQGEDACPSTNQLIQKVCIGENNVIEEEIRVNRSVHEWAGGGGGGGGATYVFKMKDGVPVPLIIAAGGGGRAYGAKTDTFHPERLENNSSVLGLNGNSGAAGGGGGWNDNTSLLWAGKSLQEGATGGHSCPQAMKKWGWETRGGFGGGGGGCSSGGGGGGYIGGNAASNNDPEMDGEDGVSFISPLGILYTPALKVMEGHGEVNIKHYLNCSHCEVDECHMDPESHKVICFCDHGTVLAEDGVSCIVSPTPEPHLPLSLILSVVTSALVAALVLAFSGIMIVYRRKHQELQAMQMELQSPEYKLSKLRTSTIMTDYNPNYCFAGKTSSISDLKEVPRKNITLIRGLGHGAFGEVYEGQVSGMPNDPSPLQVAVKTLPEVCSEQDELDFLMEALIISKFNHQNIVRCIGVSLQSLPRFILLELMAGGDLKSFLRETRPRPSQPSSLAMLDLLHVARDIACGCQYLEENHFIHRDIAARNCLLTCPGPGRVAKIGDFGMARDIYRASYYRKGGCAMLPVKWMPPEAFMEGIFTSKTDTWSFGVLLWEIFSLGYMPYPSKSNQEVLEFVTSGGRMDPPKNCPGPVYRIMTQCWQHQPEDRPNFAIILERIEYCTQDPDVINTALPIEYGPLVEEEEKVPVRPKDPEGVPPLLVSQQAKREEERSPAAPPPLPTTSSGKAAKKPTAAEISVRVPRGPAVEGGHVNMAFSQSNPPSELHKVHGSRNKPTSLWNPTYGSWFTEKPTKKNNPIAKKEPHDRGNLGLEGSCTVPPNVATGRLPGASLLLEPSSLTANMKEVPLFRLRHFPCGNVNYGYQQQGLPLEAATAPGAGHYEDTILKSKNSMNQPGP
Procedure, shortened: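 Eu-PT66 anti-phosphotyrosine TRF read-out measured phosphorylation of plate-bound GST-PLC-γ (coated at 10 μg/mL). The phosphorylation was driven by 30 ng/mL ALK for 15 minutes at 37° C.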

Chain of baculovirus-expressed JAK2 kinase (O60674 whole entry): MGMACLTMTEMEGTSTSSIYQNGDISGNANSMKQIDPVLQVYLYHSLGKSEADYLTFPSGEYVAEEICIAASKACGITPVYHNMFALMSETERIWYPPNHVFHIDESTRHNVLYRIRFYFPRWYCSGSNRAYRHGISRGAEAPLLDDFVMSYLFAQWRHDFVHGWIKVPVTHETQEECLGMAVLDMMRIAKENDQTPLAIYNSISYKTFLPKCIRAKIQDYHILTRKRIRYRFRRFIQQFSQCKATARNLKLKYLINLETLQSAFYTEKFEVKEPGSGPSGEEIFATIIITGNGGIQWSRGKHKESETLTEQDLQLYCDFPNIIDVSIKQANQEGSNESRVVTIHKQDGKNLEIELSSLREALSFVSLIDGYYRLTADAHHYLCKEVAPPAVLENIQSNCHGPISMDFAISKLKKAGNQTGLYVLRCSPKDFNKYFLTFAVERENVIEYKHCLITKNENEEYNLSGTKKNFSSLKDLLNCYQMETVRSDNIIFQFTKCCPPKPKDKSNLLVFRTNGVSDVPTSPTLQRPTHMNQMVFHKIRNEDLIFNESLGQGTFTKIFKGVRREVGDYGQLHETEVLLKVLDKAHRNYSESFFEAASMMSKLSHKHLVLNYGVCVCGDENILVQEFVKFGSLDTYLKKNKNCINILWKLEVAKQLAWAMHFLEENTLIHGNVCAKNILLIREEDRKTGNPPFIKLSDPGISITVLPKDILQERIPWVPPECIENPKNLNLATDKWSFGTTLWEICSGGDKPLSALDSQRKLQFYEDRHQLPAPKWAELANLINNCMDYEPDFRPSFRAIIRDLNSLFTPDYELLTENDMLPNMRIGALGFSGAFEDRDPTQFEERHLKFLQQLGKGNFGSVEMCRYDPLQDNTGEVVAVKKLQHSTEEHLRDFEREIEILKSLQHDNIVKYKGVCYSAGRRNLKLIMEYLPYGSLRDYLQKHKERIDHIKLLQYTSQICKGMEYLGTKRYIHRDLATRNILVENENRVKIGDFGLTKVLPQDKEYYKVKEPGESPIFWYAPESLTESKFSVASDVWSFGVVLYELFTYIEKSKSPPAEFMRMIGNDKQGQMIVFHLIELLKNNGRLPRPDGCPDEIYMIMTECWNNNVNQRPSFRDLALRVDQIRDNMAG

| SMILES | IC50 [1] [µM] | IC50 [2] [µM] |
| --- | --- | --- |
| CN(C)c1nc(Cl)c(-c2nc3c(N[C@H]4[C@@H](C(N)=O)[C@@H]5C=C[C@H]4C5)c(Br)cnc3[nH]2)s1 [Compound CLV, (1S,2S,3R,4R)-3-[6-Bromo-2-(4-chloro-2-dimethylamino-thiazol-5-yl)-3H-imidazo[4,5-b]pyridin-7-ylamino]-bicyclo[2.2.1]hept-5-ene-2-carboxylic acid amide] | < 0.1 | < 0.1 |
| CC(=O)N1CCN(Cc2ccc(-c3nc4c(N[C@H]5[C@@H](C(N)=O)[C@@H]6C=C[C@H]5C6)c(Br)cnc4[nH]3)cc2)CC1 [Compound CLVI, (1S,2S,3R,4R)-3-{2-[4-(4-Acetyl-piperazin-1-ylmethyl)-phenyl]-6-bromo-3H-imidazo[4,5-b]pyridin-7-ylamino}-bicyclo[2.2.1]hept-5-ene-2-carboxylic acid amide] | < 0.1 | < 0.1 |
| CC(=O)N1CCN(Cc2ccc(-c3nc4c(N[C@H]5[C@@H](C(N)=O)[C@@H]6C=C[C@H]5C6)c(Cl)cnc4[nH]3)cc2)CC1 [Compound CLVII, (1S,2S,3R,4R)-3-{2-[4-(4-Acetyl-piperazin-1-ylmethyl)-phenyl]-6-chloro-3H-imidazo[4,5-b]pyridin-7-ylamino}-bicyclo[2.2.1]hept-5-ene-2-carboxylic acid amide] | < 0.1 | < 0.1 |
| NC(=O)[C@@H]1[C@H](Nc2c(Cl)cnc3[nH]c(-c4sc(N5CCOCC5)nc4Cl)nc23)[C@H]2C=C[C@@H]1C2 [Compound CLX, (1S,2S,3R,4R)-3-[6-Chloro-2-(4-chloro-2-morpholin-4-yl-thiazol-5-yl)-3H-imidazo[4,5-b]pyridin-7-ylamino]-bicyclo[2.2.1]hept-5-ene-2-carboxylic acid amide] | < 0.1 | < 0.1 |
| NC(=O)[C@@H]1[C@H](Nc2c(Br)cnc3[nH]c(-c4sc(N5CCOCC5)nc4Cl)nc23)[C@H]2C=C[C@@H]1C2 [Compound CLXI, (1S,2S,3R,4R)-3-[6-Bromo-2-(4-chloro-2-morpholin-4-yl-thiazol-5-yl)-3H-imidazo[4,5-b]pyridin-7-ylamino]-bicyclo[2.2.1]hept-5-ene-2-carboxylic acid amide] | < 0.1 | < 0.1 |
| CN(C)C(=O)[C@@H]1[C@H](Nc2c(Cl)cnc3[nH]c(-c4sc(N5CCOCC5)nc4Cl)nc23)[C@H]2C=C[C@@H]1C2 [Compound CLXII, (1S,2S,3R,4R)-3-[6-Chloro-2-(4-chloro-2-morpholin-4-yl-thiazol-5-yl)-3H-imidazo[4,5-b]pyridin-7-ylamino]-bicyclo[2.2.1]hept-5-ene-2-carboxylic acid dimethylamide] | < 0.1 | < 0.1 |
| CC(C)NC(=O)[C@@H]1[C@H](Nc2c(Cl)cnc3[nH]c(-c4sc(N5CCOCC5)nc4Cl)nc23)[C@H]2C=C[C@@H]1C2 [Compound CLXIII, (1S,2S,3R,4R)-3-[6-Chloro-2-(4-chloro-2-morpholin-4-yl-thiazol-5-yl)-3H-imidazo[4,5-b]pyridin-7-ylamino]-bicyclo[2.2.1]hept-5-ene-2-carboxylic acid isopropylamide] | > 10 | < 0.1 |
| CN(C)C(=O)[C@@H]1[C@H](Nc2c(Cl)cnc3[nH]c(-c4sc(N5CCCC5)nc4Cl)nc23)[C@H]2C=C[C@@H]1C2 [Compound CLXIV, (1S,2S,3R,4R)-3-[6-Chloro-2-(4-chloro-2-pyrrolidin-1-yl-thiazol-5-yl)-3H-imidazo[4,5-b]pyridin-7-ylamino]-bicyclo[2.2.1]hept-5-ene-2-carboxylic acid dimethylamide] | < 0.1 | < 0.1 |
| CC(C)NC(=O)[C@@H]1[C@H](Nc2c(Cl)cnc3[nH]c(-c4sc(N5CC[C@@H](O)C5)nc4Cl)nc23)[C@H]2C=C[C@@H]1C2 [Compound CLXIX, (1S,2S,3R,4R)-3-{6-Chloro-2-[4-chloro-2-((R)-3-hydroxy-pyrrolidin-1-yl)-thiazol-5-yl]-1H-imidazo[4,5-b]pyridin-7-ylamino}-bicyclo[2.2.1]hept-5-ene-2-carboxylic acid isopropylamide] | 1 to 10 | 0.1 to 1 |
| CC(C)NC(=O)[C@@H]1[C@H](Nc2c(Cl)cnc3[nH]c(-c4sc(N5CCCC5)nc4Cl)nc23)[C@H]2C=C[C@@H]1C2 [Compound CLXV, (1S,2S,3R,4R)-3-[6-Chloro-2-(4-chloro-2-pyrrolidin-1-yl-thiazol-5-yl)-3H-imidazo[4,5-b]pyridin-7-ylamino]-bicyclo[2.2.1]hept-5-ene-2-carboxylic acid isopropylamide] | 1 to 10 | 0.1 to 1 |
| NC(=O)[C@@H]1[C@H](Nc2c(Cl)cnc3[nH]c(-c4sc(N5CCCC5)nc4Cl)nc23)[C@H]2C=C[C@@H]1C2 [Compound CLXVI, (1S,2S,3R,4R)-3-[6-Chloro-2-(4-chloro-2-pyrrolidin-1-yl-thiazol-5-yl)-3H-imidazo[4,5-b]pyridin-7-ylamino]-bicyclo[2.2.1]hept-5-ene-2-carboxylic acid amide] | < 0.1 | < 0.1 |
| NC(=O)[C@@H]1[C@H](Nc2c(Br)cnc3[nH]c(-c4sc(N5CCCC5)nc4Cl)nc23)[C@H]2C=C[C@@H]1C2 [Compound CLXVII, (1S,2S,3R,4R)-3-[6-Bromo-2-(4-chloro-2-pyrrolidin-1-yl-thiazol-5-yl)-3H-imidazo[4,5-b]pyridin-7-ylamino]-bicyclo[2.2.1]hept-5-ene-2-carboxylic acid amide] | < 0.1 | < 0.1 |
| CN(C)C(=O)[C@@H]1[C@H](Nc2c(Cl)cnc3[nH]c(-c4sc(N5CC[C@@H](O)C5)nc4Cl)nc23)[C@H]2C=C[C@@H]1C2 [Compound CLXVIII, (1S,2S,3R,4R)-3-{6-Chloro-2-[4-chloro-2-((R)-3-hydroxy-pyrrolidin-1-yl)-thiazol-5-yl]-3H-imidazo[4,5-b]pyridin-7-ylamino}-bicyclo[2.2.1]hept-5-ene-2-carboxylic acid dimethylamide] | < 0.1 | < 0.1 |
| NC(=O)[C@@H]1[C@H](Nc2c(Br)cnc3[nH]c(-c4sc(N5CC[C@@H](O)C5)nc4Cl)nc23)[C@H]2C=C[C@@H]1C2 [Compound CLXXI, (1S,2S,3R,4R)-3-{6-Bromo-2-[4-chloro-2-((R)-3-hydroxy-pyrrolidin-1-yl)-thiazol-5-yl]-3H-imidazo[4,5-b]pyridin-7-ylamino}-bicyclo[2.2.1]hept-5-ene-2-carboxylic acid amide] | < 0.1 | < 0.1 |
| O=C(NC1CC1)[C@@H]1[C@H](Nc2c(Cl)cnc3[nH]c(-c4sc(N5CCCC5)nc4Cl)nc23)[C@H]2C=C[C@@H]1C2 [Compound CLXXII, (1S,2S,3R,4R)-3-[6-Chloro-2-(4-chloro-2-pyrrolidin-1-yl-thiazol-5-yl)-3H-imidazo[4,5-b]pyridin-7-ylamino]-bicyclo[2.2.1]hept-5-ene-2-carboxylic acid cyclopropylamide] | 0.1 to 1 | < 0.1 |
| O=C(NC1CC1)[C@@H]1[C@H](Nc2c(Cl)cnc3[nH]c(-c4sc(N5CC[C@@H](O)C5)nc4Cl)nc23)[C@H]2C=C[C@@H]1C2 [Compound CLXXIII, (1S,2S,3R,4R)-3-[6-Chloro-2-[4-chloro-2-((R)-3-hydroxy-pyrrolidin-1-yl)-thiazol-5-yl]-3H-imidazo[4,5-b]pyridin-7-ylamino]-bicyclo[2.2.1]hept-5-ene-2-carboxylic acid cyclopropylamide] | 0.1 to 1 | < 0.1 |
| O=C(NC1CC1)[C@@H]1[C@H](Nc2c(Cl)cnc3[nH]c(-c4sc(N5CCOCC5)nc4Cl)nc23)[C@H]2C=C[C@@H]1C2 [Compound CLXXIV, (1S,2S,3R,4R)-3-[6-Chloro-2-(4-chloro-2-morpholin-4-yl-thiazol-5-yl)-3H-imidazo[4,5-b]pyridin-7-ylamino]-bicyclo[2.2.1]hept-5-ene-2-carboxylic acid cyclopropylamide] | 0.1 to 1 | < 0.1 |
| CN1CCN(CCOc2ccc(-c3nc4c(N[C@H]5[C@@H](C(=O)N(C)C)[C@@H]6C=C[C@H]5C6)c(Cl)cnc4[nH]3)cc2)CC1 [Compound CLXXV, (1S,2S,3R,4R)-3-(6-Chloro-2-{4-[2-(4-methyl-piperazin-1-yl)-ethoxy]-phenyl}-3H-imidazo[4,5-b]pyridin-7-ylamino)-bicyclo[2.2.1]hept-5-ene-2-carboxylic acid dimethylamide] | < 0.1 | < 0.1 |
| CN(C)CCOc1ccc(-c2nc3c(N[C@H]4[C@@H](C(=O)N(C)C)[C@@H]5C=C[C@H]4C5)c(Cl)cnc3[nH]2)cc1 [Compound CLXXVII, (1S,2S,3R,4R)-3-[6-Chloro-2-[4-(2-dimethylamino-ethoxy)-phenyl]-3H-imidazo[4,5-b]pyridin-7-ylamino]-bicyclo[2.2.1]hept-5-ene-2-carboxylic acid dimethylamide] | < 0.1 | 0.1 to 1 |
| CNC(=O)[C@@H]1[C@H](Nc2c(Cl)cnc3[nH]c(-c4ccc(N5CCOCC5)cc4)nc23)[C@H]2C=C[C@@H]1C2 [Compound CLXXVIII, (1S,2S,3R,4R)-3-(6-chloro-2-(4-morpholinophenyl)-3H-imidazo[4,5-b]pyridin-7-ylamino)-N-methylbicyclo[2.2.1]hept-5-ene-2-carboxamide] | < 0.1 | < 0.1 |
| CC(C)NC(=O)[C@@H]1[C@H](Nc2c(Cl)cnc3[nH]c(-c4cnn(C)c4)nc23)[C@H]2C=C[C@@H]1C2 [Compound CLXXXVII] | 0.1 to 1 | 0.1 to 1 |
| Cn1cc(-c2nc3c(NC45CCC(C)(C(=O)C4)C5(C)C)c(Cl)cnc3[nH]2)cn1 (centres unmarked) [Compound CXCIX, 4-(6-chloro-2-(1-methyl-1H-pyrazol-4-yl)-3H-imidazo[4,5-b]pyridin-7-ylamino)-1,7,7-trimethylbicyclo[2.2.1]heptan-2-one] | < 0.1 | 1 to 10 |
